Test results reported in ChEMBL document CHEMBL3991601, “The target landscape of clinical kinase drugs” (Science, 2017).
The source made the active and inactive calls. For most assays here, no stated cut-off is given here; in the data, actives have a measured Kd and inactives only a lower limit.

How the values were obtained:
[1] = target: Tyrosine-protein kinase BTK (Homo sapiens, UniProt Q06187)
[2] = target: Cyclin-dependent kinase 1 (Homo sapiens, UniProt P06493)
[3] = target: T1, Serine/threonine-protein kinase 3 (Homo sapiens, UniProt Q13188)
T1 sequence (Q13188 whole entry): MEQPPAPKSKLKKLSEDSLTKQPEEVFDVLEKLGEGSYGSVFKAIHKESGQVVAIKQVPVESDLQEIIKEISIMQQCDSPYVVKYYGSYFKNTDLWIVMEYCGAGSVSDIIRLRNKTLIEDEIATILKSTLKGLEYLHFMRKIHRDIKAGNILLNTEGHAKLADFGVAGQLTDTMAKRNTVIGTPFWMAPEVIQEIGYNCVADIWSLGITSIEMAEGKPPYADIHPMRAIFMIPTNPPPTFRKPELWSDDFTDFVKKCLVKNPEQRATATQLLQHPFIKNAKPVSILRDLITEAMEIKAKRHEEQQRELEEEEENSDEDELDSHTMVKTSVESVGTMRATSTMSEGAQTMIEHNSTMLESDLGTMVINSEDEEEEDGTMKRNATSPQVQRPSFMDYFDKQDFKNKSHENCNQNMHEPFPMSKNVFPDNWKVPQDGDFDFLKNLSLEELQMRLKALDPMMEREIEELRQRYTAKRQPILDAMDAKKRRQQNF

[4] = target: T2, ATP-dependent RNA helicase DDX42 (Homo sapiens, UniProt Q86XP3)
T2 sequence (Q86XP3 whole entry): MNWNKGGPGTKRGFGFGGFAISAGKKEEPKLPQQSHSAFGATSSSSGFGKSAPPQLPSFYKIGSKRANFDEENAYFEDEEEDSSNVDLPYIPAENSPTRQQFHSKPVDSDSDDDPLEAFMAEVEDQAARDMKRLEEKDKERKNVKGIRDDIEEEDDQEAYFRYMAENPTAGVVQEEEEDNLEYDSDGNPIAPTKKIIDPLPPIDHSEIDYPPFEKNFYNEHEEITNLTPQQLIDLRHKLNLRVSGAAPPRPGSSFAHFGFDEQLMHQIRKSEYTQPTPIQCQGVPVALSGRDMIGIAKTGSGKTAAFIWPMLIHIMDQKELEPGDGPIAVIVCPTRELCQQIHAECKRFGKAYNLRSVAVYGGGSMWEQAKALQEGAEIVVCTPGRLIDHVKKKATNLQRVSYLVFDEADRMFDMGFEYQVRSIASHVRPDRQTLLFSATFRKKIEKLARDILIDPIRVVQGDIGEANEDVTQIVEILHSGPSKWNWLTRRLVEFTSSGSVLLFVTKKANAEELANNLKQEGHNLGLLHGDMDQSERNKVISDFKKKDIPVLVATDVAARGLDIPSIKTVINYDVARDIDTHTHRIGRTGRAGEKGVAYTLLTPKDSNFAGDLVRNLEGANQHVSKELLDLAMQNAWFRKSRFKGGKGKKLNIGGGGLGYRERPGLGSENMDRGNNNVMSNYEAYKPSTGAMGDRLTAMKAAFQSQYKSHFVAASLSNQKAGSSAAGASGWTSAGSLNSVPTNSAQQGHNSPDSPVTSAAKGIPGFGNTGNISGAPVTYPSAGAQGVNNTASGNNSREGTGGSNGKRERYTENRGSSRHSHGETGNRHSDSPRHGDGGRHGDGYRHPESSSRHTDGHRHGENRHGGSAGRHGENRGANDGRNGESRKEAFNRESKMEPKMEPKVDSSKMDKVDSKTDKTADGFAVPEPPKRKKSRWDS

Aurora kinase A = target: T3, Aurora kinase A (Homo sapiens, UniProt O14965)
T3 sequence (O14965 whole entry): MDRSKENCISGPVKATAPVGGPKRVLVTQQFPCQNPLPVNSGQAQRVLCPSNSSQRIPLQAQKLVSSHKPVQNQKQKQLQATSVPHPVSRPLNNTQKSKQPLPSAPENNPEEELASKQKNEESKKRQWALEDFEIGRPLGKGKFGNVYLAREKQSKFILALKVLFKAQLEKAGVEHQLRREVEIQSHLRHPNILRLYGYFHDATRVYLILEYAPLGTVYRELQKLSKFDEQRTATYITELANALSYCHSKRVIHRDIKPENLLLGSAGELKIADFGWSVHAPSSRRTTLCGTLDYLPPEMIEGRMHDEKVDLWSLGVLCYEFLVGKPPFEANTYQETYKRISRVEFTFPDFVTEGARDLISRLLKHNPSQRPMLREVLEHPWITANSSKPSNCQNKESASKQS

[5] = target: Mitotic checkpoint serine/threonine-protein kinase BUB1 (Homo sapiens, UniProt O43683)
[6] = target: T4, General transcription and DNA repair factor IIH helicase subunit XPD (Homo sapiens, UniProt P18074); details: read-out: Kd apparent; k-562, colo 205, sk-n-be(2) and mv-4-11
T4 sequence (P18074 whole entry): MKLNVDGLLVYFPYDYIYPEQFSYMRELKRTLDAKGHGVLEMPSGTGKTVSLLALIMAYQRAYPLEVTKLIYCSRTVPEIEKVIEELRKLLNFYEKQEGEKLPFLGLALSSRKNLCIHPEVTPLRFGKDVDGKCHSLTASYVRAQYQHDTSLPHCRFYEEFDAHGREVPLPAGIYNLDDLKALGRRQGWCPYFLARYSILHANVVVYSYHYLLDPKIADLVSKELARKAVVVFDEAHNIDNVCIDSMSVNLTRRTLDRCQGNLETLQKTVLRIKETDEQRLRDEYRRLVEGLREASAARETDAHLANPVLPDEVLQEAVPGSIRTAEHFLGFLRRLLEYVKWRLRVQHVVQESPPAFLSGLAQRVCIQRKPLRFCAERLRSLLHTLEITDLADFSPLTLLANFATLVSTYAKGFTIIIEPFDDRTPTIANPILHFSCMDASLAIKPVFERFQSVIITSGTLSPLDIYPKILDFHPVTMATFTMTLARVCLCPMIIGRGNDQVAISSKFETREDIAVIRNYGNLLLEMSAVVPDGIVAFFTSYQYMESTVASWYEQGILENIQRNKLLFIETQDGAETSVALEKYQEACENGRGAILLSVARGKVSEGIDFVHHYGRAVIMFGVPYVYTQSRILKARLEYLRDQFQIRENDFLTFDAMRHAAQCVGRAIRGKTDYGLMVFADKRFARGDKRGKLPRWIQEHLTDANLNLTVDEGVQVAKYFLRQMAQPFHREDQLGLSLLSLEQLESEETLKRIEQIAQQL

[7] = target: Tyrosine-protein kinase Fer (Homo sapiens, UniProt P16591)

Measured: Kd

Sequence of Tyrosine-protein kinase BTK (Q06187 whole entry): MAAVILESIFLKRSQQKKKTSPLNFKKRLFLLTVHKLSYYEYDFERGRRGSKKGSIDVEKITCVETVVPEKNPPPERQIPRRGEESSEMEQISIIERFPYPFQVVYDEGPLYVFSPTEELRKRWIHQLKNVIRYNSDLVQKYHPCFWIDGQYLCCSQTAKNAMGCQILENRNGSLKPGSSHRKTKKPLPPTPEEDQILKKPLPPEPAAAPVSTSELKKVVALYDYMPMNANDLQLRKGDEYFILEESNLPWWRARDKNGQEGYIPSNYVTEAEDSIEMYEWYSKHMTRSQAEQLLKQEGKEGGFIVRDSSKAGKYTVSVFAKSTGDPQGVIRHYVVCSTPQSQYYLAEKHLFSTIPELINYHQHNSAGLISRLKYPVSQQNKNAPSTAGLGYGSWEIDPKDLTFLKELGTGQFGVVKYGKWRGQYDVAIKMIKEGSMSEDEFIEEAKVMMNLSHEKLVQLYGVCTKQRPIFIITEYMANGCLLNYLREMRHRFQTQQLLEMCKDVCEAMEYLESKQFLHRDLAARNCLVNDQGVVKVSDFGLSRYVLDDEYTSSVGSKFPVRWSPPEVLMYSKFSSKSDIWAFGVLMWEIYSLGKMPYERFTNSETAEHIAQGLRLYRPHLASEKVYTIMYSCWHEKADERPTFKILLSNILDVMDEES
Sequence of Cyclin-dependent kinase 1 (P06493 whole entry): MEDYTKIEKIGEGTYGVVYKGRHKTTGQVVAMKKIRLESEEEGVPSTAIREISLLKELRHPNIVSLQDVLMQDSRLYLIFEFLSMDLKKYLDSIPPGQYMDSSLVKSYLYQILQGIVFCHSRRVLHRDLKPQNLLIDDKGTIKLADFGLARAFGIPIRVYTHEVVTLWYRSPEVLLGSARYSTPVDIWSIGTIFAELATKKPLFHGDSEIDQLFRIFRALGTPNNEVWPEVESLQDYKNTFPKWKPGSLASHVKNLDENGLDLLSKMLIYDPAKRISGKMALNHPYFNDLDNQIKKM
Sequence of Tyrosine-protein kinase Fer (P16591 whole entry): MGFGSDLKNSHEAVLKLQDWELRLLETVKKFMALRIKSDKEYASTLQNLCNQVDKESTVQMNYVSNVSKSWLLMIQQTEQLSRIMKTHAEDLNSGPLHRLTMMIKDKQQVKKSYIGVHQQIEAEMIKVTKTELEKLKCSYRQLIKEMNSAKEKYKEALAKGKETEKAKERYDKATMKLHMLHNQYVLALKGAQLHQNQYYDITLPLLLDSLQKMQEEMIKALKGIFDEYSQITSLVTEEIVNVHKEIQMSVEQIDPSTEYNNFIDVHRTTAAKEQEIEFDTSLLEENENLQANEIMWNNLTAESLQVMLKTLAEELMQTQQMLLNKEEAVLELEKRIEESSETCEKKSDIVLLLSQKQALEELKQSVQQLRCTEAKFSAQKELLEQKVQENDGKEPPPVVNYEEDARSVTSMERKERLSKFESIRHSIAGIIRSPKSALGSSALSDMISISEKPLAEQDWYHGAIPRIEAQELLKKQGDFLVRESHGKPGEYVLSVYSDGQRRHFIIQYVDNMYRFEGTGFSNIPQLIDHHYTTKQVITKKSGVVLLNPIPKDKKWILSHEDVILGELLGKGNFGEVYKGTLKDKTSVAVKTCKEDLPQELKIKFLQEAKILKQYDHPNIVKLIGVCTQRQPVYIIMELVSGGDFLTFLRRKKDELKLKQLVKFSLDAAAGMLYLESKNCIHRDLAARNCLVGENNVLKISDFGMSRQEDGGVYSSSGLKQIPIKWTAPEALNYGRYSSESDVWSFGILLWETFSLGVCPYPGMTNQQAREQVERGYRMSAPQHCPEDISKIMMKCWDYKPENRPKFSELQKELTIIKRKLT
Sequence of Mitotic checkpoint serine/threonine-protein kinase BUB1 (O43683 whole entry): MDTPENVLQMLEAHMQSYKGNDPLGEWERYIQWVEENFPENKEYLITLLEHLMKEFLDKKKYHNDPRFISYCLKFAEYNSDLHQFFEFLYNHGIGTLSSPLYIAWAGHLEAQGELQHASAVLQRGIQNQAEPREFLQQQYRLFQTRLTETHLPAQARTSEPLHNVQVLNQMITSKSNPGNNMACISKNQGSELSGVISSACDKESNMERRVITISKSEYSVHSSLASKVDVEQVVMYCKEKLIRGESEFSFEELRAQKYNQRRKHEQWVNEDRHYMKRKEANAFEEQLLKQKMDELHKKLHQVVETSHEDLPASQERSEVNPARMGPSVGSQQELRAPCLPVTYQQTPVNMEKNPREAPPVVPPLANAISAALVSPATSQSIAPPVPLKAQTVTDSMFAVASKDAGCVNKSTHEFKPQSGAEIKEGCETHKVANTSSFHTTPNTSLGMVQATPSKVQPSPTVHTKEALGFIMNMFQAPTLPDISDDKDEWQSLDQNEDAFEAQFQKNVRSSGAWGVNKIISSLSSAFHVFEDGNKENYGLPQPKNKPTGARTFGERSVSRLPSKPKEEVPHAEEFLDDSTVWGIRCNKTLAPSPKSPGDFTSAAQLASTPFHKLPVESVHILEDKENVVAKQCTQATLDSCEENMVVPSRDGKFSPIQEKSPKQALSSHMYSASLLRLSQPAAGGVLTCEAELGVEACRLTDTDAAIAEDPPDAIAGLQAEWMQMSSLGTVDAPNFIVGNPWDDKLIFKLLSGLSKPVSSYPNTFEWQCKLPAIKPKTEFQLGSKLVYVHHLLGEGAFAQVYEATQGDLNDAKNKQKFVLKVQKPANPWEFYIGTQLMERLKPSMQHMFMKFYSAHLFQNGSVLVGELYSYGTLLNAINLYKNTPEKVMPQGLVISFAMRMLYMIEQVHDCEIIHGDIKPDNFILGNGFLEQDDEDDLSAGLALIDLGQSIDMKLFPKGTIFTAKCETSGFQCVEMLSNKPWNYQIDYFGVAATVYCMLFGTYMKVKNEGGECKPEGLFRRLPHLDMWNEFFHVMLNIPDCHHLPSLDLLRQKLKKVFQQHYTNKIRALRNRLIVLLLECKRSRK

Cc1cc(Nc2ncnc3ccc(NC4=NC(C)(C)CO4)cc23)ccc1Oc1ccn2ncnc2c1 [TUCATINIB]
inactive: [1] > 30 µM | [2] > 30 µM | [3] > 30 µM | [4] > 30 µM | Aurora kinase A > 30 µM | [5] > 30 µM | [6] > 30 µM | [7] > 30 µM

Cn1ncc(Cl)c1-c1cc(C(=O)N[C@H](CN)Cc2ccc(F)c(F)c2)oc1Cl [UPROSERTIB]
inactive: [1] > 30 µM | [2] > 30 µM | [3] > 30 µM | [4] > 30 µM | Aurora kinase A > 30 µM | [5] > 30 µM | [6] > 30 µM | [7] > 30 µM

C[C@@H](N)c1ccc(C(=O)Nc2ccnc3[nH]ccc23)cc1 [Y-39983]
inactive: [1] > 30 µM | [2] > 30 µM | [3] > 30 µM | [4] > 30 µM | Aurora kinase A > 30 µM | [5] > 30 µM | [6] > 30 µM | [7] > 30 µM
